7 compounds from patent US20240315242A1, “Antibacterial Compound” (LG Chem, Ltd., priority 2021, published 2024) can be followed below.

In this assay the test system is E. coli (ATCC 25922). In words: Evaluation of antibacterial property against E. coli (absorbance at 600 nm). The class given is cell-based, Escherichia coli. The conditions noted are these: injection amount of compound 0.01 g in 25 mL nutrient broth with E. coli ATCC 25922 at 3000 CFU/mL; 16 hours at 35° C.; absorbance at 600 nm vs pure culture medium. The protocol:
[formula] • in the equation, • As(Asample) represents absorbance of the culture medium containing the bacteriostatic substance at a wavelength of 600 nm, and • A0(Areference) represents absorbance of the pure culture medium without the bacteriostatic substance at a wavelength of 600 nm.
(1) Evaluation of Antibacterial Property Against E. coli
25 mL of a nutrient broth culture medium inoculated with E. coli (ATCC 25922) at 3000 CFU/mL was transferred to a 50 ml conical tube, and then the antibacterial compounds (bacteriostatic substances) prepared in Preparation Examples and Comparative Preparation Examples were injected in each amount described in Table 2 below, followed by sufficiently mixing. Thereafter, incubation was performed for 16 hours in a shaking incubator (Visiontech, VS-37SIF) maintained at 35° C.
The incubated solution was diluted to ⅕ using 1×PBS buffer solution, and absorbance at the wavelength of 600 nm was measured for the diluted solution using a UV-Vis Spectrophotometer (K Lab, Optizen POP). In addition, E. coli (ATCC 25922) was cultured in a pure culture medium without the antibacterial compound for 16 hours in a shaking incubator (VISION TECH, VS-37SIF) maintained at 35° C., which was prepared as a control, and absorbance at the wavelength of 600 nm was measured in the same manner as above.
Then, antibacterial rates (%) of E. coli (ATCC 25922) were calculated according to the following Equation 1, and the results are shown in Table 2 below.
[formula] • in the equation, • As(Asample) represents absorbance of the culture medium containing the bacteriostatic substance at a wavelength of 600 nm, and • A0(Areference) represents absorbance of the E. coli pure culture medium without the bacteriostatic substance at a wavelength of 600 nm.

As to `C=CC(=O)OCC[N+](C)(C)CCCCCCCCCC` [Compound 5], the “Antibacterial rate (%)” value is given as 95.8%. As to `C=C(C)C(=O)OCC[N+](C)(C)CCCCCCCC` [Compound B, reference compound], the “Antibacterial rate (%)” value came to 69.2%.

With `C=CC(=O)OCC[N+](C)(C)CCCCCCCC` [Compound E, reference compound], the “Antibacterial rate (%)” value was found to be 62.3%.

As to `C=CC(=O)OCC[N+](C)(C)CCCCCCCC` [Compound 6], the “Antibacterial rate (%)” value came to 70.6%.

Take `C=CC(=O)OCC[N+](C)(C)CCCCCCCCCCCC` [Compound 3]: the “Antibacterial rate (%)” value came out at 97.3%. The result for `C=C(C)C(=O)OCC[N+](C)(C)CCCCCCCCCCCC` [Compound 2] reads 98.1%. The value for `C=C(C)C(=O)OCC[N+](C)(C)CCCCCCCCCC` [Compound 1] was 95.3%.
